Literature values as cited in paper PMC9276671, “A first-in-human Phase I dose-escalation trial of the novel therapeutic peptide, ALM201, demonstrates a favourable safety profile in unselected patients with ovarian cancer and other advanced solid tumours” (British Journal of Cancer, 2022).
Where two headings read alike, the source gives them in different places. No end group written: not given here.

Columns and labels:
[1] = ref Investigator brochure (IB), cited from earlier work
Description: page 40: Almac Discovery Confidential (i) a […] dose ranging study in rats, dose range 5-50 mg/kg/day; (ii) a non-GLP dose ranging study in dogs, dose range 15-50 mg/kg/day; (iii) a GLP 28-day study in rats, dose range 5-50 mg/kg/day; (iv) a GLP 28-day study in dogs, dose range 5-50 mg/kg/day; (v) a non-GLP wound healing study in rats, dose range 5-50 mg/kg/day. In the rat dose range finding study, administration of doses of up to 50 mg/kg/day for 14 days were assessed. ALM201 was well tolerated at all doses and the No Observable Adverse Effect Level (NOAEL) was considered to be 50 mg/kg/d ...

[2] = test system: ovarian patient-derived xenograft models; settings: cited from earlier work
[3] = test system: HMEC-1, a human vascular endothelial cell-line; settings: protocol Table 3; ref Investigator brochure (IB); read-out: Wound scrape IC50; cited from earlier work
Excerpt: page 37: Almac Discovery Confidential There are five main histological subtypes of ovarian cancer differing in tissue of origin, stage of presentation, sensitivity to chemotherapy, survival and driver genetic mutations. The most aggressive of these subtypes are the high grade serous tumours. […] ALM201 also had no effect on cytok ...

heparinised human blood = settings: alone or with Staphylococcus Enterotoxin B, 10^-8 to 10^-6 M, ref Investigator brochure (IB); cited from earlier work
[4] = Mouse, 3mg/kg SC, male animals; ref Investigator brochure (IB); cited from earlier work
[5] = test system: HT29, DU145 and MDA-231 xenografts; settings: cited from earlier work

In the case of IRQQPRDPPTETLELEVSPDPAS [ALM201], the NOAEL ([1]; beagle dog dose range finding, 15 and 50 mg/kg/day for 14 days) is listed as 50 mg/kg/day, the NOAEL ([1]; dog GLP 28 days plus recovery, 5, 15 and 50 mg/kg/day) is listed as 50 mg/kg/day and the NOAEL ([1]; rat GLP 28 days plus recovery, 5, 15 and 50 mg/kg/day) is listed as 50 mg/kg/day. For the same sequence, the NOAEL ([1]; rat dose range finding study, up to 50 mg/kg/day for 14 days) was 50 mg/kg/day, the “Effect on wound closure or tensile strength” value ([1]; rat, 5 and 50 mg/kg/day for up to 18 days, versus vehicle controls) was “No effect” and the Tumour growth inhibition [2] was greater than 60%. The IC50 [3] was 9 pM, the “Effect on cytokine release and T-cell proliferation” value (heparinised human blood) was “no effect” and the “AUC24 (figure is for AUC0-∞)” value [4] was 2166 ng·h/mL. The Cmax [4] was 3477 ng/mL, the Half-life [4] was 12 min and the Tmax [4] was 10 min. The “Tumour size relative to vehicle controls” value ([5]; 0.3 mg/kg and 3.0 mg/kg daily or three times weekly, HT29, DU145 and MDA-231, ref Investigator brochure (IB)) was “significant inhibition of tumour size” and the “Anti-tumour activity in vivo” value ([5]; single agent or in combination with chemotherapeutic agents, tumour xenograft models, ref Almac Discovery, manuscript in preparation) was “significant anti-tumour activity”.
